In publication PMC2990605 (British Journal of Cancer, 2010):
“Also recorded” adds a separate entry of the source.

Assay: Adverse events (CTCAEv3.0), worst grade per patient regardless of relation, and laboratory parameters
Assay type: in vivo
Experimental: Toxicity was evaluated according to common toxicity criteria for adverse events (CTCAEv3.0). The MTD was defined as the dose level(s) at which at least two out of six patients developed DLT.
Toxicity assessment, haematology and clinical biochemistry were performed at baseline and weekly during the study. Physical and ECOG performance status were recorded at baseline and before the next cycle.

CC(C)C[C@@H](C(=O)N[C@H](C(=O)OC1CCCC1)c1ccccc1)[C@H](O)C(=O)NO [tosedostat]
Dyspnoea, CTCAE grade 1, patients (human, in vivo, 21 days): 0 | Eosinophilic myocarditis, CTCAE grade 1, patients (human, in vivo, 21 days): 0 | Eosinophilic myocarditis, CTCAE grade 2, patients (human, in vivo, 21 days): 0 | Eosinophilic myocarditis, CTCAE grade 3, patients (human, in vivo, 21 days): 0 | Eosinophilic myocarditis, CTCAE grade 4, patients (human, in vivo, 21 days): 0 | Eosinophilic myocarditis, patients with events, % (human, in vivo, 21 days): 0% | Erythema, CTCAE grade 1, patients (human, in vivo, 21 days): 0 | Erythema, CTCAE grade 2, patients (human, in vivo, 21 days): 0 | Erythema, CTCAE grade 3, patients (human, in vivo, 21 days): 0 | Erythema, CTCAE grade 4, patients (human, in vivo, 21 days): 0 | Erythema, patients with events, % (human, in vivo, 21 days): 0% | Fatigue, CTCAE grade 1, patients (human, in vivo, 21 days): 7 | Fatigue, CTCAE grade 2, patients (human, in vivo, 21 days): 2 | Fatigue, CTCAE grade 3, patients (human, in vivo, 21 days): 1 | Fatigue, CTCAE grade 4, patients (human, in vivo, 21 days): 0 | Fatigue, patients with events, % (human, in vivo, 21 days): 45% | Gastric dilatation, CTCAE grade 1, patients (human, in vivo, 21 days): 0 | Gastric dilatation, CTCAE grade 2, patients (human, in vivo, 21 days): 0 | Gastric dilatation, CTCAE grade 3, patients (human, in vivo, 21 days): 1 | Gastric dilatation, CTCAE grade 4, patients (human, in vivo, 21 days): 0 | Gastric dilatation, patients with events, % (human, in vivo, 21 days): 5% | General physical health deterioration, CTCAE grade 1, patients (human, in vivo, 21 days): 0 | General physical health deterioration, CTCAE grade 2, patients (human, in vivo, 21 days): 0 | General physical health deterioration, CTCAE grade 3, patients (human, in vivo, 21 days): 0 | General physical health deterioration, CTCAE grade 4, patients (human, in vivo, 21 days): 0 | General physical health deterioration, patients with events, % (human, in vivo, 21 days): 0% | Hypercalcaemia, CTCAE grade 1, patients (human, in vivo, 21 days): 0 | Hypercalcaemia, CTCAE grade 2, patients (human, in vivo, 21 days): 0 | Hypercalcaemia, CTCAE grade 3, patients (human, in vivo, 21 days): 0 | Hypercalcaemia, CTCAE grade 4, patients (human, in vivo, 21 days): 0 | Hypercalcaemia, patients with events, % (human, in vivo, 21 days): 0% | Hyperglycaemia, CTCAE grade 1, patients (human, in vivo, 21 days): 0 | Hyperglycaemia, CTCAE grade 2, patients (human, in vivo, 21 days): 0 | Hyperglycaemia, CTCAE grade 3, patients (human, in vivo, 21 days): 2 | Hyperglycaemia, CTCAE grade 4, patients (human, in vivo, 21 days): 0 | Hyperglycaemia, patients with events, % (human, in vivo, 21 days): 9% | Hyperhidrosis, CTCAE grade 1, patients (human, in vivo, 21 days): 1 | Hyperhidrosis, CTCAE grade 2, patients (human, in vivo, 21 days): 0 | Hyperhidrosis, CTCAE grade 3, patients (human, in vivo, 21 days): 0 | Hyperhidrosis, CTCAE grade 4, patients (human, in vivo, 21 days): 0 | Hyperhidrosis, patients with events, % (human, in vivo, 21 days): 5% | Leukopenia, CTCAE grade 1, patients (human, in vivo, 21 days): 0 | Leukopenia, CTCAE grade 2, patients (human, in vivo, 21 days): 2 | Leukopenia, CTCAE grade 3, patients (human, in vivo, 21 days): 2 | Leukopenia, CTCAE grade 4, patients (human, in vivo, 21 days): 0 | Leukopenia, patients with events, % (human, in vivo, 21 days): 18% | Malaise, CTCAE grade 2, patients (human, in vivo, 21 days): 0 | Malaise, CTCAE grade 3, patients (human, in vivo, 21 days): 1 | Malaise, CTCAE grade 4, patients (human, in vivo, 21 days): 0 | Malaise, patients with events, % (human, in vivo, 21 days): 5% | Mucosal inflammation, CTCAE grade 1, patients (human, in vivo, 21 days): 2 | Mucosal inflammation, CTCAE grade 2, patients (human, in vivo, 21 days): 1 | Mucosal inflammation, CTCAE grade 3, patients (human, in vivo, 21 days): 0 | Mucosal inflammation, CTCAE grade 4, patients (human, in vivo, 21 days): 0 | Mucosal inflammation, patients with events, % (human, in vivo, 21 days): 14% | Myalgia, CTCAE grade 1, patients (human, in vivo, 21 days): 7 | Myalgia, CTCAE grade 2, patients (human, in vivo, 21 days): 1 | Myalgia, CTCAE grade 3, patients (human, in vivo, 21 days): 1 | Myalgia, CTCAE grade 4, patients (human, in vivo, 21 days): 0 | Myalgia, patients with events, % (human, in vivo, 21 days): 41% | Nasopharyngitis, CTCAE grade 1, patients (human, in vivo, 21 days): 2 | Nasopharyngitis, CTCAE grade 2, patients (human, in vivo, 21 days): 0 | Nasopharyngitis, CTCAE grade 3, patients (human, in vivo, 21 days): 0 | Nasopharyngitis, CTCAE grade 4, patients (human, in vivo, 21 days): 0 | Nasopharyngitis, patients with events, % (human, in vivo, 21 days): 9% | Nausea, CTCAE grade 1, patients (human, in vivo, 21 days): 4 | Nausea, CTCAE grade 2, patients (human, in vivo, 21 days): 1 | Nausea, CTCAE grade 3, patients (human, in vivo, 21 days): 0 | Nausea, CTCAE grade 4, patients (human, in vivo, 21 days): 0 | Nausea, patients with events, % (human, in vivo, 21 days): 23% | Neutropenia, CTCAE grade 1, patients (human, in vivo, 21 days): 0 | Neutropenia, CTCAE grade 2, patients (human, in vivo, 21 days): 1 | Neutropenia, CTCAE grade 3, patients (human, in vivo, 21 days): 2 | Neutropenia, CTCAE grade 4, patients (human, in vivo, 21 days): 3 | Neutropenia, patients with events, % (human, in vivo, 21 days): 27% | Oedema peripheral, CTCAE grade 1, patients (human, in vivo, 21 days): 4 | Oedema peripheral, CTCAE grade 2, patients (human, in vivo, 21 days): 1 | Oedema peripheral, CTCAE grade 3, patients (human, in vivo, 21 days): 0 | Oedema peripheral, CTCAE grade 4, patients (human, in vivo, 21 days): 0 | Oedema peripheral, patients with events, % (human, in vivo, 21 days): 23% | Oedema, CTCAE grade 1, patients (human, in vivo, 21 days): 3 | Oedema, CTCAE grade 2, patients (human, in vivo, 21 days): 0 | Oedema, CTCAE grade 3, patients (human, in vivo, 21 days): 0 | Oedema, CTCAE grade 4, patients (human, in vivo, 21 days): 0 | Oedema, patients with events, % (human, in vivo, 21 days): 14% | Peripheral sensory neuropathy, CTCAE grade 1, patients (human, in vivo, 21 days): 4 | Peripheral sensory neuropathy, CTCAE grade 2, patients (human, in vivo, 21 days): 3 | Peripheral sensory neuropathy, CTCAE grade 3, patients (human, in vivo, 21 days): 0 | Peripheral sensory neuropathy, CTCAE grade 4, patients (human, in vivo, 21 days): 0 | Peripheral sensory neuropathy, patients with events, % (human, in vivo, 21 days): 32% | Pollakiuria, CTCAE grade 1, patients (human, in vivo, 21 days): 0 | Pollakiuria, CTCAE grade 2, patients (human, in vivo, 21 days): 0 | Pollakiuria, CTCAE grade 3, patients (human, in vivo, 21 days): 0 | Pollakiuria, CTCAE grade 4, patients (human, in vivo, 21 days): 0 | Pollakiuria, patients with events, % (human, in vivo, 21 days): 0% | Pruritus, CTCAE grade 1, patients (human, in vivo, 21 days): 3 | Pruritus, CTCAE grade 2, patients (human, in vivo, 21 days): 0 | Pruritus, CTCAE grade 3, patients (human, in vivo, 21 days): 1 | Pruritus, CTCAE grade 4, patients (human, in vivo, 21 days): 0 | Pruritus, patients with events, % (human, in vivo, 21 days): 18% | Pyrexia, CTCAE grade 1, patients (human, in vivo, 21 days): 1 | Pyrexia, CTCAE grade 2, patients (human, in vivo, 21 days): 1 | Pyrexia, CTCAE grade 3, patients (human, in vivo, 21 days): 0 | Pyrexia, CTCAE grade 4, patients (human, in vivo, 21 days): 0 | Pyrexia, patients with events, % (human, in vivo, 21 days): 9% | Rash, CTCAE grade 1, patients (human, in vivo, 21 days): 3 | Rash, CTCAE grade 2, patients (human, in vivo, 21 days): 1 | Rash, CTCAE grade 3, patients (human, in vivo, 21 days): 1 | Rash, CTCAE grade 4, patients (human, in vivo, 21 days): 0 | Rash, patients with events, % (human, in vivo, 21 days): 23% | Spinal cord compression, CTCAE grade 1, patients (human, in vivo, 21 days): 0 | Spinal cord compression, CTCAE grade 2, patients (human, in vivo, 21 days): 0 | Spinal cord compression, CTCAE grade 3, patients (human, in vivo, 21 days): 0 | Spinal cord compression, CTCAE grade 4, patients (human, in vivo, 21 days): 0 | Spinal cord compression, patients with events, % (human, in vivo, 21 days): 0% | Tumour pain, CTCAE grade 1, patients (human, in vivo, 21 days): 0 | Tumour pain, CTCAE grade 2, patients (human, in vivo, 21 days): 0 | Tumour pain, CTCAE grade 3, patients (human, in vivo, 21 days): 1 | Tumour pain, CTCAE grade 4, patients (human, in vivo, 21 days): 0 | Tumour pain, patients with events, % (human, in vivo, 21 days): 5% | Urinary tract infection, CTCAE grade 1, patients (human, in vivo, 21 days): 0 | Urinary tract infection, CTCAE grade 2, patients (human, in vivo, 21 days): 0 | Urinary tract infection, CTCAE grade 3, patients (human, in vivo, 21 days): 1 | Urinary tract infection, CTCAE grade 4, patients (human, in vivo, 21 days): 0 | Urinary tract infection, patients with events, % (human, in vivo, 21 days): 5% | Vomiting, CTCAE grade 1, patients (human, in vivo, 21 days): 3 | Vomiting, CTCAE grade 2, patients (human, in vivo, 21 days): 1 | Vomiting, CTCAE grade 3, patients (human, in vivo, 21 days): 0 | Vomiting, CTCAE grade 4, patients (human, in vivo, 21 days): 0 | Vomiting, patients with events, % (human, in vivo, 21 days): 18% | γ-glutamyltransferase increased, CTCAE grade 1, patients (human, in vivo, 21 days): 0 | γ-glutamyltransferase increased, CTCAE grade 2, patients (human, in vivo, 21 days): 0 | γ-glutamyltransferase increased, CTCAE grade 3, patients (human, in vivo, 21 days): 1 | γ-glutamyltransferase increased, CTCAE grade 4, patients (human, in vivo, 21 days): 0 | γ-glutamyltransferase increased, patients with events, % (human, in vivo, 21 days): 5% | death on study, cause (one patient, cohort 5, 6 days after third paclitaxel infusion, 2 days after last tosedostat dose): eosinophilic myocarditis, possibly related to study medication; also recorded: eosinophilic myocarditis, considered possibly related to paclitaxel, tosedostat or other medications
